From article PMC11277991, “Tunicamycins from Marine-Derived Streptomyces bacillaris Inhibit MurNAc-Pentapeptide Translocase in Staphylococcus aureus” (Marine Drugs, 2024)

molecular target: T1, MurNAc-pentapeptide translocase (MraY) (Staphylococcus aureus, UniProt Q2FZ93); experiment: UMP-Glo luminescence glycosyltransferase assay with purified MraY; type: biochemical
T1 construct: recombinant His6-tagged MraY from S. aureus ATCC6538p (ca. 36 kDa), expressed in E. coli BL21(DE3)
T1 sequence (Q2FZ93 whole entry): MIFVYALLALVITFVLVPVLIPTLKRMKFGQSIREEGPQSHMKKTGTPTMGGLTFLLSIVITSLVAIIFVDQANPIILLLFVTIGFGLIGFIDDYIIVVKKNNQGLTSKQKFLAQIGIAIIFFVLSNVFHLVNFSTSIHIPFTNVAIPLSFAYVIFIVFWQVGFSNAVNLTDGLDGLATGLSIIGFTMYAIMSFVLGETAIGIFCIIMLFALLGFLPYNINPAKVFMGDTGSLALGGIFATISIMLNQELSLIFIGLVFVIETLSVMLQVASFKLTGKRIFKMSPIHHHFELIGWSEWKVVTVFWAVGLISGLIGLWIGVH

Compound	IC50
CC(=O)N[C@H]1[C@@H](O[C@@H]2O[C@H](C[C@@H](O)[C@H]3O[C@@H](n4ccc(=O)[nH]c4=O)[C@H](O)[C@@H]3O)[C@H](O)[C@H](O)[C@H]2NC(=O)/C=C/CCCCCCCCCCC(C)C)O[C@H](CO)[C@@H](O)[C@@H]1O [compound 1, tunicamycin VII]	0.142 µM
CCCCCCCCCCCCC/C=C/C(=O)N[C@H]1[C@H](O[C@H]2O[C@H](CO)[C@@H](O)[C@H](O)[C@H]2NC(C)=O)O[C@H](C[C@@H](O)[C@H]2O[C@@H](n3ccc(=O)[nH]c3=O)[C@H](O)[C@@H]2O)[C@H](O)[C@@H]1O [compound 2, tunicamycin VIII]	0.154 µM
CCC(C)CCCCCCCCCC/C=C/C(=O)N[C@H]1[C@H](O[C@H]2O[C@H](CO)[C@@H](O)[C@H](O)[C@H]2NC(C)=O)O[C@H](C[C@@H](O)[C@H]2O[C@@H](n3ccc(=O)[nH]c3=O)[C@H](O)[C@@H]2O)[C@H](O)[C@@H]1O (stereo partly shown) [compound 3, corynetoxin U17a]	0.0931 µM
CCCCCCCCCCCCCC/C=C/C(=O)N[C@H]1[C@H](O[C@H]2O[C@H](CO)[C@@H](O)[C@H](O)[C@H]2NC(C)=O)O[C@H](C[C@@H](O)[C@H]2O[C@@H](n3ccc(=O)[nH]c3=O)[C@H](O)[C@@H]2O)[C@H](O)[C@@H]1O [compound 4, tunicamycin IX]	0.244 µM
